According to patent publication US9481676B2, “Azepino[4,5-B]indoles and methods of use” (Medivation Technologies, Inc., priority 2008, dated 2016):

Key:
[1] = biological target: T1, human recombinant serotonin (5-Hydroxytryptamine) 5-HT2A receptor (Homo sapiens, UniProt P28223); test: Serotonin 5-HT2A radioligand binding ([3H]Ketanserin); conditions: compound at 1 μM; read-out: Serotonin (1 μM) 5-HT2A, percent inhibition of specific binding
T1 construct: expressed in transfected cells; host or cells: CHO-K1 cells
T1 sequence (P28223 whole entry): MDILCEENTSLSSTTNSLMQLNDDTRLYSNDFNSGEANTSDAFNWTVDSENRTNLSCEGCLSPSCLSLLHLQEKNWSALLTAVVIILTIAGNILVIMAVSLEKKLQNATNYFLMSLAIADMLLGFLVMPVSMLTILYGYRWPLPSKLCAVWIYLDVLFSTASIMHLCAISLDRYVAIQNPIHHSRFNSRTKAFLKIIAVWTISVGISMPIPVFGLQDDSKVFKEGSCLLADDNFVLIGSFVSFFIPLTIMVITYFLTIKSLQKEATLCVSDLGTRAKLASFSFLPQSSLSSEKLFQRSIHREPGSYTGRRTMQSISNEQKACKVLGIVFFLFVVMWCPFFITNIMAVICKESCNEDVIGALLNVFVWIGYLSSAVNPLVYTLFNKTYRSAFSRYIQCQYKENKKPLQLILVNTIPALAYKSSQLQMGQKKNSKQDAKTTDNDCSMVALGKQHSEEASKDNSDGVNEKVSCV
Outline: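 Percent inhibition of specific [3H]ketanserin (0.5 nM) binding, filtration read-out, with compounds at ≤1 μM (1% DMSO vehicle). Receptor source: recombinant human 5-HT2A in CHO-K1 cells, 50 mM Tris-HCl pH 7.4, 60 min, 25 °C; 1 μM mianserin gives nonspecific binding.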

[2] = biological target: T2, human recombinant histamine H2 receptor (Homo sapiens, UniProt P25021); test: Histamine H2 radioligand binding ([125I]Aminopotentidine); conditions: compound at 1 μM; read-out: Histamine Binding (1 μM) H2, percent inhibition of specific binding
T2 construct: expressed in transfected cells; host or cells: CHO-K1 cells
T2 sequence (P25021 whole entry): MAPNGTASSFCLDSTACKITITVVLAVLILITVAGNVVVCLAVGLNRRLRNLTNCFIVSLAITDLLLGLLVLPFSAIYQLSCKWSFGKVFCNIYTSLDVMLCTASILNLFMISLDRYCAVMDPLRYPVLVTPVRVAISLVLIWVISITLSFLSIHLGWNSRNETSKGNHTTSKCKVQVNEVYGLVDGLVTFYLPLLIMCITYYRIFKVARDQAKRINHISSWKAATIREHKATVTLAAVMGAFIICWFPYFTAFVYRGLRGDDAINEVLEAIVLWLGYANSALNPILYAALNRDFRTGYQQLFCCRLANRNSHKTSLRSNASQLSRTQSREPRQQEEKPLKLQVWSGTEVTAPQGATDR
Outline: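 Membranes from CHO-K1 cells expressing recombinant human H2 receptor, in 50 mM phosphate buffer pH 7.4, incubated with 0.1 nM [125I]aminopotentidine for 120 min at 25 °C; nonspecific binding defined with 3 μM tiotidine.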

[3] = biological target: T3, human recombinant adrenergic α2A receptor (Homo sapiens, UniProt P08913); test: Adrenergic alpha2A radioligand binding ([3H]MK-912); conditions: compound at 1 μM; read-out: Adrenergic (1 μM) α2A, percent inhibition of specific binding
T3 construct: expressed in transfected cells; host or cells: insect Sf9 cells
T3 sequence (P08913 1-465): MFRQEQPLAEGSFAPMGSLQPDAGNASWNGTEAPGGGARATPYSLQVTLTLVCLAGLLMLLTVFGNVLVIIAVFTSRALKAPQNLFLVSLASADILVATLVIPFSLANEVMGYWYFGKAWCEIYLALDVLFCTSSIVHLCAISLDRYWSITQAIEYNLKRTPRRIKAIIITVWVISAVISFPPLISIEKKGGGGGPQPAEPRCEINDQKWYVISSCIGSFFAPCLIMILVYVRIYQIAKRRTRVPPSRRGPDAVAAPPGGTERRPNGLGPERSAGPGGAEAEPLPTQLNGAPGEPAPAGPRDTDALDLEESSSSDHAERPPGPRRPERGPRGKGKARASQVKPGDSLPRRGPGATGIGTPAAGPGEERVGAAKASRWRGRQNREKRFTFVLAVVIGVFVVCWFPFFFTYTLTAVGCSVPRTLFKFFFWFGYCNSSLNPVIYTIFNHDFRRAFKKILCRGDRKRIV
Outline: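 Membranes of Sf9 cells expressing human recombinant α2A receptor were incubated with compound and 1 nM [3H]MK-912 for 60 min at 25 °C in 50 mM Tris-HCl pH 7.4, 12.5 mM MgCl2, 2 mM EDTA. Nonspecific binding: 10 μM WB-4101.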

[4] = biological target: T4, human recombinant dopamine D2L receptor (Homo sapiens, UniProt P14416); test: Dopamine D2L radioligand binding ([3H]Spiperone); conditions: compound at 1 μM; read-out: Dopamine (1 μM) D2L, percent inhibition of specific binding
T4 construct: expressed in transfected cells; host or cells: CHO cells
T4 sequence (P14416 whole entry): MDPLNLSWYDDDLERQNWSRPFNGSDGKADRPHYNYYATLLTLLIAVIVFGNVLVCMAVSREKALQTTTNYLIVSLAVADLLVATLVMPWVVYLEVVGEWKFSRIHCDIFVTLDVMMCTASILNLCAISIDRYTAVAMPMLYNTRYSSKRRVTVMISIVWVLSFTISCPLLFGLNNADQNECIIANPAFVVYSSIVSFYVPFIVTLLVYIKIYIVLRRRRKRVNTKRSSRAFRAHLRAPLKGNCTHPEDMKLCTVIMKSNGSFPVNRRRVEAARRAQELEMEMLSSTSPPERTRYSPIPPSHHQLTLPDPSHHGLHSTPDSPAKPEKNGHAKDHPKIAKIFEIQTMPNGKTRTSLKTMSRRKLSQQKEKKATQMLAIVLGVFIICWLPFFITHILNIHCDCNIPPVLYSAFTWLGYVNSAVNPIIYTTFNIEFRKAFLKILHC
Outline: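 Binding measured by filtration and counting, reported as % inhibition of specific [3H]spiperone binding (0.16 nM tracer; 10 μM haloperidol for nonspecific). Compounds tested at ≤1 μM in 1% DMSO for 120 min at 25° C against CHO-expressed human D2L in pH 7.4 Tris-HCl buffer.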

[5] = biological target: T5, human recombinant histamine H1 receptor (Homo sapiens, UniProt P35367); test: Histamine H1 radioligand binding ([3H]Pyrilamine); conditions: compound at 1 μM; read-out: Histamine Binding (1 μM) H1, percent inhibition of specific binding
T5 construct: expressed in transfected cells; host or cells: CHO cells
T5 sequence (P35367 whole entry): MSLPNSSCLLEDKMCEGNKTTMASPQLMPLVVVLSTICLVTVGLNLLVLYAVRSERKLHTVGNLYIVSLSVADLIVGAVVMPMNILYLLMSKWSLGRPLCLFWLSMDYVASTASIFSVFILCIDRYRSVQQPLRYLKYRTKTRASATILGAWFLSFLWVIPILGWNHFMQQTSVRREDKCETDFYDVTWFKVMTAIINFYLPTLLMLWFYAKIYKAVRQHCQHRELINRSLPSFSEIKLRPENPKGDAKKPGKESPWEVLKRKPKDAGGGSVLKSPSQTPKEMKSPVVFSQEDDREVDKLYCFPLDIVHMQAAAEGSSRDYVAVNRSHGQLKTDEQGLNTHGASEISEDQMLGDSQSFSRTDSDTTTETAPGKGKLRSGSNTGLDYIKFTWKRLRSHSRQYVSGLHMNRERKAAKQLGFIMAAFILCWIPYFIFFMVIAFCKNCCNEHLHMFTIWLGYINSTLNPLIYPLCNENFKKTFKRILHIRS
Outline: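 Membranes from CHO cells expressing the receptor were incubated with compound and 1.2 nM [3H]pyrilamine for 180 min at 25 °C in 50 mM Tris-HCl pH 7.4 with MgCl2, NaCl and sucrose; 1 μM pyrilamine defined non-specific binding. Filter-bound radioactivity was counted.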

SMILES | inhibition at 1 µM [1] | inhibition at 1 µM [2] | inhibition at 1 µM [3] | inhibition at 1 µM [4] | inhibition at 1 µM [5]
C/C(=C\n1c2c(c3cc(C)ccc31)CCN(C)CC2)c1ccc(Cl)cc1Cl [Compound No. 238, (E)-6-(2-(2,4-dichlorophenyl)prop-1-enyl)-3,9-dimethyl-1,2,3,4,5,6-hexahydroazepino[4,5-b]indole] | 103% | 98% | 98% | 7% | 98%
C/C(=C\n1c2c(c3cc(Cl)ccc31)CCN(C)CC2)c1ccc(Cl)cc1Cl [Compound No. 239, (E)-9-chloro-6-(2-(2,4-dichlorophenyl)prop-1-enyl)-3-methyl-1,2,3,4,5,6-hexahydroazepino[4,5-b]indole] | 102% | 89% | 93% | 9% | 91%
CN1CCc2c(n(C#Cc3ccc(F)cc3)c3ccc(Cl)cc23)CC1 [Compound No. 281, 9-chloro-6-((4-fluorophenyl)ethynyl)-3-methyl-1,2,3,4,5,6-hexahydroazepino[4,5-b]indole] | 100% | 76% | 92% | 40% | 56%
CN1CCc2c(n(C#Cc3ccc(Cl)cc3)c3ccc(Cl)cc23)CC1 [Compound No. 282, 9-chloro-6-((4-chlorophenyl)ethynyl)-3-methyl-1,2,3,4,5,6-hexahydroazepino[4,5-b]indole] | 98% | 87% | 95% | 1% | 99%
Cc1ccc2c(c1)c1c(n2C(=O)Cc2ccc(F)cc2)CCN(C)CC1 [Compound No. 285, 1-(3,9-dimethyl-2,3,4,5-tetrahydroazepino[4,5-b]indol-6(1H)-yl)-2-(4-fluorophenyl) ethanone] | 100% | 74% | 91% | 21% | 68%
